From article PMC6222706, “Evaluation of the Antioxidant and Neuroprotectant Activities of New Asymmetrical 1,3-Diketones” (Molecules : A Journal of Synthetic Chemistry and Natural …, 2018)

Tests used:
[1] = Chemical stability in 10 mM PBS; type: physicochemical; conditions: 6b, 7b at 400 µM, curcumin at 50 µM
Method: It is also important to know compound integrity at those concentrations used in biological assays, and for that, the chemical stability was determined in 10 mM PBS after 6 h, 24 h and 48 h.
In parallel compound saturation solutions were obtained and filtered from 20 mM compound stock in DMSO. So, 10 µL of 20 mM stock solution were dispensed to 190 µL of PBS 10 mM. The solutions were mixed, shaken in a microplate shaker for two hours, and then 160 µL of each solution were filtered and transferred to a new well plate for UV absorption measure. The compound stability in PBS 10 mM was determined at 24, 48 and 72 h with solutions prepared as those for the compound calibration curve.

SH-SY5Y cells [2] = assay: Intracellular ROS levels (DCFH2-DA) in SH-SY5Y cells under H2O2; type: cell-based, human
Method: Oxidative stress increases ROS levels, which may cause cell damage and death. Therefore, ROS production caused by H2O2 was evaluated in cells pretreated with or without derivatives 6b and 7b. In these studies, DFCH-DA method was used to measure by fluorescence the ROS intracellular levels, under two different compound treatment regimens. […] From both experiments, it could be concluded that 6b and 7b reduce intracellular ROS, and that longer treatment period seems to be needed to achieve a better ROS reduction.
Intracellular ROS levels were determined using dichlorofluorescein diacetate (DCFH2-DA) according to Wang et al.. DCFH2-DA is cleaved by intracellular esterases and oxidized by ROS to form the fluorescent compound DCF, which measure represents the ROS level. So, 3 × 10^3 SH-SY5Y cells were seeded in 96 well plates and after 24 h, treated with the test compound for an additional 24 h. […] After the incubation period, cells were washed twice with Hanks buffer and loaded with 20 µM DCFH2-DA (in FBS-free culture medium) for 40 min in dark at 37 °C in a CO2 incubator. At the end of the dye incubation period, they were washed twice with Hanks buffer to remove the extracellular DCFH2-DA. Fluorescence was measured with a Varioskan microplate reader at 485 nm excitation and 535 nm emission wavelength. Results are expressed as the percentage of fluorescent increase compared with that of the control. All the experiments were performed at least three times by quadruplicate for each compound concentration.

SH-SY5Y cells [3] = assay: LDH release assay in H2O2-treated SH-SY5Y cells; type: cell-based, human; conditions: compound 5-50 µM for 24 h, then 200 µM H2O2 for 24 h
Method: Additionally, the protection effect of 6b and 7b on cell death induced by 200 µM H2O2 was determined by measuring the lactate dehydrogenase (LDH) release in cell culture medium.
SH-SY5Y 96-well plates at a density of 5 × 10^3 cells/well and grown in the incubator for 24 h. Cells were pretreated for 24 h with different compound concentrations (5, 10, 20, 30, 40, 50 µM) and then exposed to 200 µM H2O2 for 24 h. Then, the supernatant was used in the LDH assay and the absorbance measured at 490nm in a Varioskan microplate reader after 30 min, according to the manufacturer’s instructions (LDH Cytotoxicity Assay Kit, Pierce^TM, Thermo Fisher Scientific, Vantaa, Finland). LDH leakage was calculated as the percentage of the control group.

[4] = ABTS radical scavenging assay; type: biochemical; conditions: for IC50: 30 min incubation, EtOH, absorbance at 734 nm; for ABTS-TEAC100: Trolox Equivalent Antioxidant Capacity vs 100 µM solution of the substance, from ABTS assay
Method: ABTS^+ radical was produced by reacting 2,2′-azino-bis-3-ethylbenzthiazoline-6-sulphonic acid (ABTS) 7 mM with K2S2O8 2.45 mM, both reactants dissolved in water, and at the volume ratio of 1:1. The mixture was stored in the dark at room temperature for 16 h. The ABTS^+ solution was diluted to give an absorbance of 0.750 ± 0.025 at 734 nm in EtOH. All the compounds tested were dissolved in EtOH. 150 µL of each compound solution was added to the wells of the 96-well plate, followed by the addition of 50 µL of the ABTS^+ radical solution. Final compound concentrations tested were 0, 5, 10, 20, 50, 100, 150, 200 µM. The absorbance change at 734 nm was recorded after 30 min incubation in the dark, and the percentage of radical scavenging was calculated for each concentration relative to a blank containing no scavenger. The degree of decolorization was calculated as the percentage reduction of absorbance. The ABTS^+ radical scavenging activity was calculated as follows: Percentage ABTS^+ radical scavenging activity = {1 − [As/Ac]} × 100(1) where As is the absorbance of the ABTS^+ radical solution containing samples and Ac the absorbance of the control solution without antioxidant. The percentages of ABTS^+ radical reduced were plotted against compound concentration. Trolox was used as a reference antioxidant. All the assays were carried out three times by quadruplicate for each compound.

[5] = FRAP (Ferric Reducing Antioxidant Power) assay; type: biochemical; conditions: for FRAP-TEAC100: Trolox Equivalent Antioxidant Capacity vs 100 µM solution of the substance, from FRAP assay; for FRAP Assay (%) at 100 µM / FRAP Assay (%) at 200 µM: 30 min, 593 nm
Method: The assay was carried out according to the method of Benzie et al. with slight modifications, in a 96-well microplate. FRAP reagent was prepared by mixing 10 mL of 300 mM acetate buffer with 1 mL of 10 mM 2,4,6-tripyridyl-S-triazine (TPTZ) in HCl 40 mM and 1mL of FeCl3·6H2O 20 mM. Firstly, 190 µL of the FRAP reagent were added to all wells of the 96-well plate, followed by the addition to the well of 10 µL of the test compounds dissolved in Ethanol to reach the final concentrations assayed (0, 5, 10, 20, 50, 100, 150, 200 µM). After 30 min incubation in the dark, the absorbance was read at 593 nm. Trolox was used as assay control. Three different assays were carried out by quadruplicate for each compound.

[6] = 6 h compound treatment followed by 2 h 500 µM H2O2
[7] = 24 h compound treatment prior to 400 µM H2O2 for 4 h

SMILES | Remaining Compound (%) 0 h [1] [%] | Remaining Compound (%) 6 h [1] [%] | Remaining Compound (%) 24 h [1] [%] | Remaining Compound (%) 48 h [1] [%] | Intracellular ROS level (SH-SY5Y cells [2]; [6]) | Intracellular ROS level (SH-SY5Y cells [2]; [7]) | LDH leakage (SH-SY5Y cells [3]) | IC50 [4] [µM] | ABTS-TEAC100 [4] | FRAP-TEAC100 [5] | FRAP Assay (%) at 100 µM [5] [%] | FRAP Assay (%) at 200 µM [5] [%]
O=C(/C=C(O)/C=C/c1cc(F)c(O)cc1F)C(F)(F)F [Compound 6b, (3Z,5E)-6-(2,5-difluoro-4-hydroxyphenyl)-1,1,1-trifluoro-4-hydroxyhexa-3,5-dien-2-one] | 100 | 96.1 ± 0.5 | 92.2 ± 1.6 | 90.4 ± 3.0 | significant ROS level decrease | significant ROS level reduction | reduced the LDH leakage | 116 ± 11 | 0.67 | 0.15 | 6.7 | 11.3
O=C(/C=C(O)/C=C/c1ccc(O)c(F)c1F)C(F)(F)F [Compound 7b, (3Z,5E)-6-(2,3-Difluoro-4-hydroxyphenyl)-1,1,1-trifluoro-4-hydroxyhexa-3,5-dien-2-one] | 100 | 95.7 ± 1.0 | 90.9 ± 1.2 | 87.8 ± 2.3 | significant ROS level decrease | significant ROS level reduction | reduced the LDH leakage | 70.9 ± 5.8 | 0.62 | 0.16 | 8.8 | 15.3
